According to patent US20130266557A1, “METHODS FOR TREATMENT OF A SARCOMA USING AN EPIMETABOLIC SHIFTER (COENZYME Q10)” (priority 2009, published 2013):

What was measured:
[1] = Level and form of CoQ10 in mitochondrial enriched preparations; type: cell-based
Protocol: Experiments were carried out to confirm the entry of CoQ10 into cells and to determine the level and form of CoQ10 present in the cells. In particular, the level of Coenzyme Q10, as well as the form of CoQ10 (i.e., oxidized or reduced), present in the mitochondria was determined by analyzing mitochondrial enriched preparations from cells treated with CoQ10. […] In addition, changes in levels of proteins from mitochondria enriched samples were analyzed by using 2-D gel electrophoresis and protein identification by mass spectrometry characterization.

NCIES0808 cells [2] = test: Antibody microarray analysis of protein levels; type: cell-based, human
Protocol: NCIES0808 cells were received from SBH in T165 flasks (×55). […] The cell morphology was examined closely under a microscope and the cells were noted to appear healthy with no visual signs of contamination or intracellular inclusions.
A 500 μM Q10 stock was made using the same protocol outlined for the PCR arrays. The media was exchanged in every flask with 50 μM and 100 μM Q10 media being placed into the appropriate flasks. The cells were incubated for 3 hr and 6 hr in the Q10 formulated media and the cells were harvested. Each flask was washed with 10 ml of ice cold PBS and trypsinized with 5 ml of trypsin-EDTA. The cells were harvested by gentle pipetting and the enzyme action was stopped by addition of 30 ml complete media. The cells were centrifuged at 1200 rpm for 5 minutes and media was aspirated from the tube leaving behind the cell pellet for protein extraction.
The proteins were extracted from the cells as per page 2; sub-category IA; of the manufacture's Product Information Sheet, Sigma®, Panarama® Antibody Microarray EPRESS Profiler725, cat#: XP725. The protein material from the whole cell lysates was conjugated with Cy3 and Cy5 dyes, GE Healthcare, product #: 25-8009-86 Cy3 and 25-8009-87 Cy5 as per the manufacturer's instructions outlined in the above mentioned product sheet sub-category IIA. […] The arrays were analyzed using a Fuji FLA-5100 UV scanner at the 532 nm for the Cy3 dye and 635 nm for the Cy5 dye. […]
The evaluation of changes in protein concentration due to the presence of Q10 was evaluated through the utilization of antibody microarray methods. […]
Once data sets were collected for all arrays, the data was scrutinized against three major parameters. […] An evaluation of the positive and negative Cy3/Cy5 data (included as controls on the chip) and a visual inspection of the spectral density for a given spot it was determined that and array data point with a spectral density less than 10 was approaching the background level and deemed statistically irrelevant and removed from the data series. […]

NCIES0808 cells [3] = test: Real-time PCR, Human Mitochondrial arrays; type: cell-based; settings: CoQ10 doses and time points examined (50/100 uM; 3-48 hours)
Protocol: NCIES0808 cells were plated in T25 flasks at a density of 2×10^6 cells per flask in media or media containing 50 uM/100 uM Q10. All treatment groups were run in triplicate. Cells were harvested at 0, 3, 6, 24 or 48 hours. Pictures were taken to examine cell morphology before harvesting. To harvest cells, media was removed but saved to be able to collect floating apoptotic cells. Cells were trypsinized with 1 ml of trypsin-EDTA and the enzyme action was stopped by addition of 4 ml complete media. Trypsinized cells were added to the appropriate tube containing the media with dead cells. Cells were centrifuged at 1200 rpm for 5 minutes and media was aspirated leaving behind the cell pellet for RNA extraction. RNA isolation from cell pellets was carried out with the RNeasy kit (Qiagen, Valencia Calif.) according to the manufacturer's instructions. RNA samples were eluted from spin columns in water; absorbance was measured at 260 nm, 230 nm and 280 nm. The purity of RNA was evaluated by the 260/230 and 280/230 ratios. The concentration of RNA in all of the samples was calculated from absorbance values at […]. […] The ct values from each of the samples were normalized to three housekeeping genes and fold regulation of Q10 treated groups was compared to time matched controls from cells grown in regular media was calculated. […]

skin cancer cells = settings: culture of skin cancer cells but not normal cells; cited from earlier work
[4] = system: Ewing Sarcoma cell lines (JDT, 0808); test: Combined antibody array, 2-D gel/MS and real time PCR microarray; type: cell-based; settings: in response to CoQ10 treatment
Description: Functional groups were identified using “The Database for Annotation, Visualization and Integrated Discovery’ [DAVID] that subdivided the genes in 42 major clusters. Maximum number of genes from the list were segregated within the “Regulation of Cellular Process” and “Metabolic Process” functional groups with the other proteins spread over functional groups including regulation of transcription, programmed cell death, cell development, cytoskeleton, nucleus, proteosome and organ development.

Coenzyme Q10 [CoQ10]
Level of Coenzyme Q10 present in the mitochondria ([1]; addition of exogenous Q10): increase in a time and dose dependent manner
Form of CoQ10 present in the mitochondria ([1]; mitochondrial enriched preparations from treated cells): primarily in oxidized form
Expression of CBP/p300 (NCIES0808 cells [2]; ES0808 cell line, compared to baseline): increase
Decrease in expression (value = protein), discussion list (NCIES0808 cells [2]; NCIES 0808 cells in response to CoQ10): HDAC2 and HDAC4 and mTOR
FOXO1a expression (NCIES0808 cells [2]; treatment with 100 μM CoQ10): up regulated
Genes modulated on Human Mitochondrial arrays (NCIES0808 cells [3]): did not reveal any modulated genes
Rate of apoptosis (skin cancer cells): increase the rate of apoptosis
Number of gene products whose expression is significantly influenced [4]: over 90
Share of identified gene products down-regulated [4]: ~40%
Share of identified gene products up-regulated [4]: approximately 60%
